In patent publication US8471005B2 (Cephalon, Inc., priority 2008, dated 2013):

What was measured:
[1] = target: T1, ALK (Homo sapiens, UniProt Q9UM73); test: ALK Kinase Assay (ELISA/TRF, PLC-γ substrate); format: biochemical; conditions: ALK kinase inhibition, 1 μM ATP; read-out: ALK Potency
T1 construct: host or cells: baculovirus expression system
Summary of the method: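 IC50 values derive from percent inhibition plotted against log10 compound concentration and fitted to a variable-slope sigmoidal equation. The underlying reaction used 30 ng/ml ALK acting on immobilized PLC-γ (10 μg/mL in TBS) at 37° C for 15 minutes, read with Eu-N1 PT66 antibody.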

[2] = target: T2, JAK2 (Homo sapiens, UniProt O60674); test: Recombinant Human JAK2 Kinase Assay (TRF); format: biochemical; conditions: JAK2 kinase inhibition, 0.2 μM ATP; read-out: JAK2 Potency
T2 construct: host or cells: baculovirus expression system
T2 sequence (O60674 whole entry): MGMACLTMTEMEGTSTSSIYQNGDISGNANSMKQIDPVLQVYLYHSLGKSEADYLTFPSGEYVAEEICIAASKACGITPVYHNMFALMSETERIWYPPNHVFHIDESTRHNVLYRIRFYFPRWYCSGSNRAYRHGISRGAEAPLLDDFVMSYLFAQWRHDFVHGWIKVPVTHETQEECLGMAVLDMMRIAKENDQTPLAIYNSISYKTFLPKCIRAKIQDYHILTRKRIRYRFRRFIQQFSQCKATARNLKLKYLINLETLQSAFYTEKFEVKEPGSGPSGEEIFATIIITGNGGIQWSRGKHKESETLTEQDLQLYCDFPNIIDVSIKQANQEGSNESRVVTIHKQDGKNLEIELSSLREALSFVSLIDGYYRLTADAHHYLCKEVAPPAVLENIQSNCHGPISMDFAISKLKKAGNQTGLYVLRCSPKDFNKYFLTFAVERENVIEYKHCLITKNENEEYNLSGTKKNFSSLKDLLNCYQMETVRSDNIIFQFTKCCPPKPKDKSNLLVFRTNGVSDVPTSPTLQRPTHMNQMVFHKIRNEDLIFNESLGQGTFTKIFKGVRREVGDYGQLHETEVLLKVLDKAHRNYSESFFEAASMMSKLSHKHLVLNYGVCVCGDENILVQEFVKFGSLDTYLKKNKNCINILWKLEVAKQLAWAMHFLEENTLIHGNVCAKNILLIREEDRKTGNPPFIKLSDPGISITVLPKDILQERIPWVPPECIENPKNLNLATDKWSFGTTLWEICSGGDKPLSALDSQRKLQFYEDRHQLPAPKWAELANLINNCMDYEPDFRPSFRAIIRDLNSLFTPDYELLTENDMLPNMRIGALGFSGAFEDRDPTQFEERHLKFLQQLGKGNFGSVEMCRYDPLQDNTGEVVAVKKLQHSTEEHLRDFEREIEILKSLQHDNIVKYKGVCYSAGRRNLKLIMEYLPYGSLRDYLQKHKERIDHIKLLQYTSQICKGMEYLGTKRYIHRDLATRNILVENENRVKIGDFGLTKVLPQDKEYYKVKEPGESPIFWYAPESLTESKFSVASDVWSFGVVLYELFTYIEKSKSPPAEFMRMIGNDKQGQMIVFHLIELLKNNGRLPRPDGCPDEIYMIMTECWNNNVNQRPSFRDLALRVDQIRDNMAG
Summary of the method: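 Baculovirus-expressed JAK2 (15 ng/ml) phosphorylated a biotinylated 15-mer peptide captured on Neutravidin-coated plates, in 20 mM HEPES pH 7.2 with 0.2 μM ATP, 1 mM MnCl2, 0.1% BSA and 2.5% DMSO. Reaction ran 20 min at room temperature; phosphopeptide was detected by time-resolved fluorescence with Eu-N1-labelled PY100 antibody.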

T1 sequence (Q9UM73 19-1620): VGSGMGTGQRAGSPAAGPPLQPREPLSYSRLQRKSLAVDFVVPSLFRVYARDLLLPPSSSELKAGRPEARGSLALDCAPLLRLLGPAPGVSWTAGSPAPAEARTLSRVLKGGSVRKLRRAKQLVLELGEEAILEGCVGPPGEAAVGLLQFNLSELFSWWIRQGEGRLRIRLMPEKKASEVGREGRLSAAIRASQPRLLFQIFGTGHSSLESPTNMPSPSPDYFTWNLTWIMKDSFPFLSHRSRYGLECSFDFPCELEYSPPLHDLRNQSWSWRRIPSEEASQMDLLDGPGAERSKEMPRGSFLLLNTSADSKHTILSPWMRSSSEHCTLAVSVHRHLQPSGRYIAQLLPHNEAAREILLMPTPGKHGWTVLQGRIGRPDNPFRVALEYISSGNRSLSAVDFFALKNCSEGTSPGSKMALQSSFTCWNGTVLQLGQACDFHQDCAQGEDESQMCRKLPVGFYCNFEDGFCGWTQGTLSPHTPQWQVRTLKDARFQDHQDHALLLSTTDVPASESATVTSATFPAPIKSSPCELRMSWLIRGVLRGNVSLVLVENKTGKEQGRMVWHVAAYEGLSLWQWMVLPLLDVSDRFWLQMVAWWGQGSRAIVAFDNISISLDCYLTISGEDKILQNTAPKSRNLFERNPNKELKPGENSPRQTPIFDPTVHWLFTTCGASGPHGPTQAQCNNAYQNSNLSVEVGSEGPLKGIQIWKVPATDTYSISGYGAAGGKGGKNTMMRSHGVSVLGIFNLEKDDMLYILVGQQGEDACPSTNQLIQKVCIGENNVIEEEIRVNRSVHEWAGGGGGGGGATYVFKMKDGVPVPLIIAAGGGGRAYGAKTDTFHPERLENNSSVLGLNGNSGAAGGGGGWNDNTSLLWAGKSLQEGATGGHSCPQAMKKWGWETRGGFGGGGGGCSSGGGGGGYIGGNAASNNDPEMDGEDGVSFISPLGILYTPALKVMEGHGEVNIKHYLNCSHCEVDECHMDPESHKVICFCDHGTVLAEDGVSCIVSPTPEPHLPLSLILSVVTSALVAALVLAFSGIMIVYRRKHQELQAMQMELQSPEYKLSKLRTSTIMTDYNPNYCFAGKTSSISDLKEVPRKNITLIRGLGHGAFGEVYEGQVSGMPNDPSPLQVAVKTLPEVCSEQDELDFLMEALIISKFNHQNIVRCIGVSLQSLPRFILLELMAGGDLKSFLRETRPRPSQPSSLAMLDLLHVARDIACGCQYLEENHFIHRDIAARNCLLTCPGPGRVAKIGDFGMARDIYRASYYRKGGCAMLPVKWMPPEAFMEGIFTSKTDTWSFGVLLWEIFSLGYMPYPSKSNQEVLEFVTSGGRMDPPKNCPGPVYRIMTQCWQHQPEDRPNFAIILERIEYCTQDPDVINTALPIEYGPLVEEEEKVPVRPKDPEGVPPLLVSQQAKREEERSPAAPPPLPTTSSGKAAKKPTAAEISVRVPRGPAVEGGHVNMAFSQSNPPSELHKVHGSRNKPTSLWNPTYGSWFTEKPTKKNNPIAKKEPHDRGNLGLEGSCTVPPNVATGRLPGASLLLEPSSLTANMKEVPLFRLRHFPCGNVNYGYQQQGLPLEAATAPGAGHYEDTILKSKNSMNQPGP

SMILES | IC50 [1] [µM] | IC50 [2] [µM]
COc1ccccc1-c1ccn2nc(Nc3ccc4c(c3)CN(C)CC4)ncc12 [Example 722, [5-(2-Methoxy-phenyl)-pyrrolo[2,1-f][1,2,4]triazin-2-yl]-(2-methyl-1,2,3,4-tetrahydro-isoquinolin-7-yl)-amine] | > 10 | 1 to 10
CCN1CCN(C(=O)c2ccc(Nc3ncc4c(-c5ccccc5OC)ccn4n3)cc2)CC1 [Example 723, (4-Ethyl-piperazin-1-yl)-{4-[5-(2-methoxy-phenyl)-pyrrolo[2,1-f][1,2,4]triazin-2-ylamino]-phenyl}-methanone] | > 10 | 0.1 to 1
COc1ccc(-c2ccn3nc(Nc4ccc(N5CCN(C)CC5)cc4)ncc23)cc1 [Example 724, [5-(4-Methoxy-phenyl)-pyrrolo[2,1-f][1,2,4]triazin-2-yl]-[4-(4-methyl-piperazin-1-yl)-phenyl]-amine] | > 10 | > 10
COc1cccc(-c2ccn3nc(Nc4ccc(N5CCN(C)CC5)cc4)ncc23)c1 [Example 725, [5-(3-Methoxy-phenyl)-pyrrolo[2,1-f][1,2,4]triazin-2-yl]-[4-(4-methyl-piperazin-1-yl)-phenyl]-amine] | > 10 | > 10
CN1CCN(c2ccc(Nc3ncc4c(-c5ccc(F)cc5)ccn4n3)cc2)CC1 [Example 726, [5-(4-Fluoro-phenyl)-pyrrolo[2,1-f][1,2,4]triazin-2-yl]-[4-(4-methyl-piperazin-1-yl)-phenyl]-amine] | 1 to 10 | > 10
CCN1CCN(C(=O)c2ccc(Nc3ncc4c(-c5ccc(F)cc5)ccn4n3)cc2)CC1 [Example 727, (4-Ethyl-piperazin-1-yl)-{4-[5-(4-fluoro-phenyl)-pyrrolo[2,1-f][1,2,4]triazin-2-ylamino]-phenyl}-methanone] | > 10 | > 10
CN1CCc2ccc(Nc3ncc4c(-c5ccc(F)cc5)ccn4n3)cc2C1 [Example 728, [5-(4-Fluoro-phenyl)-pyrrolo[2,1-f][1,2,4]triazin-2-yl]-(2-methyl-1,2,3,4-tetrahydro-isoquinolin-7-yl)-amine] | > 10 | 1 to 10
CN(C)c1cccc(CNc2ncc3c(-c4ccc(F)cc4)ccn3n2)c1 [Example 729, (3-Dimethylamino-benzyl)-[5-(4-fluoro-phenyl)-pyrrolo[2,1-f][1,2,4]triazin-2-yl]-amine] | > 10 | 1 to 10
CN1CCN(c2ccc(Nc3ncc4c(-c5cccc(F)c5)ccn4n3)cc2)CC1 [Example 730, [5-(3-Fluoro-phenyl)-pyrrolo[2,1-f][1,2,4]triazin-2-yl]-[4-(4-methyl-piperazin-1-yl)-phenyl]-amine] | > 10 | 1 to 10
COc1cc(C2(O)CCN(C(=O)OC(C)(C)C)CC2)ccc1Nc1ncc2ccc(-c3ccccc3N(C)S(C)(=O)=O)n2n1 [Example 741, 4-Hydroxy-4-(4-{7-[2-(methanesulfonyl-methyl-amino)-phenyl]-pyrrolo[2,1-f][1,2,4]triazin-2-ylamino}-3-methoxy-phenyl)-piperidine-1-carboxylic acid tert-butyl ester] | 0.1 to 1 | 0.1 to 1
COc1cc(C2=CCNCC2)ccc1Nc1ncc2ccc(-c3ccccc3N(C)S(C)(=O)=O)n2n1 [Example 742, N-(2-{2-[2-Methoxy-4-(1,2,3,6-tetrahydro-pyridin-4-yl)-phenylamino]-pyrrolo[2,1-f][1,2,4]triazin-7-yl}-phenyl)-N-methyl-methanesulfonamide] | < 0.1 | 0.1 to 1
CCN1CCC(O)(c2ccc(Nc3ncc4ccc(-c5ccccc5N(C)S(C)(=O)=O)n4n3)c(OC)c2)CC1 [Example 743, N-(2-{2-[4-(1-Ethyl-4-hydroxy-piperidin-4-yl)-2-methoxy-phenylamino]-pyrrolo[2,1-f][1,2,4]triazin-7-yl}-phenyl)-N-methyl-methanesulfonamide] | < 0.1 | 1 to 10
CCN1CC=C(c2ccc(Nc3ncc4ccc(-c5ccccc5N(C)S(C)(=O)=O)n4n3)c(OC)c2)CC1 [Example 744, N-(2-{2-[4-(1-Ethyl-1,2,3,6-tetrahydro-pyridin-4-yl)-2-methoxy-phenylamino]-pyrrolo[2,1-f][1,2,4]triazin-7-yl}-phenyl)-N-methyl-methanesulfonamide] | < 0.1 | 1 to 10
COc1ccc(-c2ccc3cnc(Nc4ccc(C5CCN(CC(N)=O)CC5)cc4OC)nn23)c(OC)c1 [Example 745, 2-(4-{4-[7-(2,4-Dimethoxy-phenyl)-pyrrolo[2,1-f][1,2,4]triazin-2-ylamino]-3-methoxy-phenyl}-piperidin-1-yl)-acetamide] | < 0.1 | 1 to 10
COc1cc(C2CCN(CC(N)=O)CC2)ccc1Nc1ncc2ccc(-c3cc(F)c(F)cc3N(C)S(C)(=O)=O)n2n1 [Example 746, 2-[4-(4-{7-[4,5-Difluoro-2-(methanesulfonyl-methyl-amino)-phenyl]-pyrrolo[2,1-f][1,2,4]triazin-2-ylamino}-3-methoxy-phenyl)-piperidin-1-yl]-acetamide] | < 0.1 | 1 to 10
Brc1ccc(Nc2ncc3cc4ccccc4n3n2)cc1 [Example 751, (4-Bromo-phenyl)-[1,2,4]triazino[1,6-a]indol-2-yl-amine] | > 10 | > 10
COc1ccc(Nc2ncc3cc4ccccc4n3n2)cc1 [Example 752, (4-Methoxy-phenyl)-[1,2,4]triazino[1,6-a]indol-2-yl-amine] | > 10 | < 0.1
COc1cc(N2CCN(C[C@H](C)O)CC2)ccc1Nc1ncc2ccc(-c3ccccc3OC)n2n1 [Example 753, (S)-1-(4-{3-Methoxy-4-[7-(2-methoxy-phenyl)-pyrrolo[2,1-f][1,2,4]triazin-2-ylamino]-phenyl}-piperazin-1-yl)-propan-2-ol] | < 0.1 | < 0.1
COc1cc(N2CCN(C[C@@H](C)O)CC2)ccc1Nc1ncc2ccc(-c3ccccc3OC)n2n1 [Example 754, (R)-1-(4-{3-Methoxy-4-[7-(2-methoxy-phenyl)-pyrrolo[2,1-f][1,2,4]triazin-2-ylamino]-phenyl}-piperazin-1-yl)-propan-2-ol] | < 0.1 | < 0.1
COc1cc(N2CCN(C[C@H](C)O)CC2)ccc1Nc1ncc2ccc(-c3cc(Cl)ccc3OC)n2n1 [Example 755, (S)-1-(4-{4-[7-(5-Chloro-2-methoxy-phenyl)-pyrrolo[2,1-f][1,2,4]triazin-2-ylamino]-3-methoxy-phenyl}-piperazin-1-yl)-propan-2-ol] | < 0.1 | < 0.1
COc1cc(N2CCN(C[C@@H](C)O)CC2)ccc1Nc1ncc2ccc(-c3cc(Cl)ccc3OC)n2n1 [Example 756, (R)-1-(4-{4-[7-(5-Chloro-2-methoxy-phenyl)-pyrrolo[2,1-f][1,2,4]triazin-2-ylamino]-3-methoxy-phenyl}-piperazin-1-yl)-propan-2-ol] | < 0.1 | < 0.1
COc1cc(N2CCN(C[C@@H](O)CO)CC2)ccc1Nc1ncc2ccc(-c3cc(Cl)ccc3OC)n2n1 [Example 757, (R)-3-(4-{4-[7-(5-Chloro-2-methoxy-phenyl)-pyrrolo[2,1-f][1,2,4]triazin-2-ylamino]-3-methoxy-phenyl}-piperazin-1-yl)-propane-1,2-diol] | < 0.1 | 0.1 to 1
COc1cc(C2CCN(C[C@H](O)CO)CC2)ccc1Nc1ncc2ccc(-c3ccccc3OC)n2n1 [Example 761, (S)-3-(4-{3-Methoxy-4-[7-(2-methoxy-phenyl)-pyrrolo[2,1-f][1,2,4]triazin-2-ylamino]-phenyl}-piperidin-1-yl)-propane-1,2-diol] | < 0.1 | 0.1 to 1
COc1cc(C2CCN(C)CC2)ccc1Nc1ncc2ccc(-c3ccccc3OC)n2n1 [Example 762, [2-Methoxy-4-(1-methyl-piperidin-4-yl)-phenyl]-[7-(2-methoxy-phenyl)-pyrrolo[2,1-f][1,2,4]triazin-2-yl]-amine] | < 0.1 | < 0.1
COc1cc(N2CCC(N(C)C)C2)ccc1Nc1ncc2ccc(-c3ccccc3OC)n2n1 (stereo not shown) [Example 763, [4-(3-Dimethylamino-pyrrolidin-1-yl)-2-methoxy-phenyl]-[7-(2-methoxy-phenyl)-pyrrolo[2,1-f][1,2,4]triazin-2-yl]-amine] | < 0.1 | < 0.1
COc1ccccc1-c1ccc2cnc(Nc3ccc4c(c3)N3CCC4CC3)nn12 [Example 764, (3,4-Dihydro-2H-1,4-ethano-quinolin-7-yl)-[7-(2-methoxy-phenyl)-pyrrolo[2,1-f][1,2,4]triazin-2-yl]-amine] | < 0.1 | < 0.1
COc1cc(N2CCCN(C)CC2)ccc1Nc1ncc2ccc(-c3ccccc3OC)n2n1 [Example 765, [2-Methoxy-4-(4-methyl-[1,4]diazepan-1-yl)-phenyl]-[7-(2-methoxy-phenyl)-pyrrolo[2,1-f][1,2,4]triazin-2-yl]-amine] | < 0.1 | 0.1 to 1
COc1cc(N2CCCN(C[C@@H](C)O)CC2)ccc1Nc1ncc2ccc(-c3ccccc3OC)n2n1 [Example 766, (R)-1-(4-{3-Methoxy-4-[7-(2-methoxy-phenyl)-pyrrolo[2,1-f][1,2,4]triazin-2-ylamino]-phenyl}-[1,4]diazepan-1-yl)-propan-2-ol] | < 0.1 | < 0.1
COc1cc(C2CCN(C[C@H](O)CO)CC2)ccc1Nc1ncc2ccc(-c3ccccc3N(C)S(C)(=O)=O)n2n1 [Example 769, N-[2-(2-{4-[1-((S)-2,3-Dihydroxy-propyl)-piperidin-4-yl]-2-methoxy-phenylamino}-pyrrolo[2,1-f][1,2,4]triazin-7-yl)-phenyl]-N-methyl-methanesulfonamide] | < 0.1 | 0.1 to 1
